Reference: paper PMC7318222, “A Family of Water‐Immiscible, Dipolar Aprotic, Diamide Solvents from Succinic Acid” (Chemsuschem, 2020)

Molecular target: T1, TRβ (Homo sapiens, UniProt P10828)
T1 construct: expression construct for the full-length human receptor under investigation; expressed in transfected cells; host or cells: human U2-OS cells (ATCC HTB-96), stably transfected
T1 sequence (P10828 1-461): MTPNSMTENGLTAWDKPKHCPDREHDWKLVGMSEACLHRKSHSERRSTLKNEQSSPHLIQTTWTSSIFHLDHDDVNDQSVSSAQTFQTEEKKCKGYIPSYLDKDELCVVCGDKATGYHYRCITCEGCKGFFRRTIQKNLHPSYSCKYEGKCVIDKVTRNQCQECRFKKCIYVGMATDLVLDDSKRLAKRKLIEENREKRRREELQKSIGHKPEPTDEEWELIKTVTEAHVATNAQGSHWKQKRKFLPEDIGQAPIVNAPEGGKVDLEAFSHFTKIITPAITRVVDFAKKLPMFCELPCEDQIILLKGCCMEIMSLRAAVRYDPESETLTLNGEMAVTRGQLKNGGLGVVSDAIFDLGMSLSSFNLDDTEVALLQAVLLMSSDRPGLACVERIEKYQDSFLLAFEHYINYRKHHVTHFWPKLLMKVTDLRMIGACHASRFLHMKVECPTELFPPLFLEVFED
Assay: TRβ CALUX reporter gene assay
Assay type: cell-based
Design: key: –: no effect observed up to the highest test concentration
Details: PC10, 24 h exposure
Text: 2-methylimidazole 99.0%, zinc(II) nitrate hexahydrate ≥99.0%, para-cymene 99.0%, 1,4-dioxane 99.8% (anhydrous), 4-nitroaniline ≥99.0%, 1-octanol ≥99.0%, diglyme ≥99.0%, DMSO-d6 (99.8% D) and chloroform-d (99.8% D) were purchased from Sigma-Aldrich. Toluene ≥99.0%, hexane ≥99.5%, DCM ≥99.5%, chloroform ≥99.5%, DMSO ≥99.0% were purchased from VWR. N,N-diethyl-4-nitroaniline ≥98.0% was purchased from Alfa Aeser. Cyrene was supplied by Circa group. N-butylpyrrolidinone was supplied by Eastman chemicals. N,N-dimethylformamide 99.9% and N,N-dimethylacetamide 99.9% were purchased from Fischer. The flakes of Ultrason® E3020 P Polyarylethersulfone of 55,000 Da were obtained from INGE.BASF, Germany. The CALUX cell lines have been described previously.[1] They are based on human U2-OS cells (ATCC, HTB-96) stably transfected with an expression construct for the full-length human receptor under investigation, and a reporter construct consisting of multimerized responsive elements for the cognate receptor coupled to a minimal promoter element (TATA) and a luciferase gene. Cells were maintained as described previously,[2] using cell culture media and supplements from Fisher Scientific as described in the experimental procedures section. […]
In vitro reporter gene assays
The automated CALUX assays were carried out similarly as described earlier,[12] with some adaptations. In brief, the assay was performed in CO2 independent medium (Fisher Scientific, […]
supplement (Fisher Scientific, 11574466), 10 U/mL penicillin and 10 µg/mL streptomycin. A cell suspension in assay medium was made of 1 × 10^5cells/mL, and white 384-wells plates were seeded with 30 µl cell suspension/well. After 24 h, exposure medium was prepared. A dilution series in 0.5log unit increments of each test compound (in DMSO) was added to a 96-wells plate containing assay medium (2% v/v). Of this exposure mixture, 30 µl was added to the assay plates containing the CALUX cells, resulting in a final DMSO concentration of 1%. Additionally, DMSO blanks and a full dose response curve of the relevant reference compound were included on each plate. All samples were tested in triplicate. The preparation of the compound dilution series as well as the exposure of the cells were performed on a Hamilton StarLET liquid handling robot coupled to a Cytomat incubator.
Directly after exposure, plates were sealed with non-breathing plate seals (Plate sealer, easy seal transparent; Greiner-Bio-One, 676001). After 24 h the exposure medium was removed using an EL406 washer-dispenser (BioTek) and 10 µl/well triton lysisbuffer was added by the EL406.
Subsequently, the luciferase signal was measured in a luminometer (InfinitePro coupled to a Connect Stacker, both TECAN). In order to be able to detect receptor antagonism, several assays were also performed in antagonistic mode. […]
The luminometer data was analysed as follows; the average of the triplicate wells was determined, and the average blank (DMSO) value was subtracted. […] For antagonist- and cytotoxicity experiments, PC20 values were determined instead, which was defined as the concentration where the test compound causes a 20% decrease in the basal signal, which was […]
curve, the signal induction above background (DMSO) was determined, and the concentration where the compound elicited a 1.5-fold increase above background was used as LEC.

Row | Structure (SMILES) | LEC TRβ
1 | CCCCN1CCCC1=O [NBP, N‐Butylpyrrolidinone, reference compound] | –
2 | CCCCN(CCCC)C(=O)CCC(=O)N(CCCC)CCCC [TBSA, N,N,N′,N′‐tetrabutylsuccindiamide] | –
3 | CN1CCCC1=O [NMP, N‐methyl‐2‐pyrrolidone, reference compound] | –
4 | CCCCN(CC)C(=O)CCC(=O)N(CC)CCCC [EBSA, N,N′‐diethyl‐N,N′‐dibutylsuccindiamide] | –
5 | CCCCN(C)C(=O)CCC(=O)N(C)CCCC [MBSA, N,N′‐dimethyl‐N,N′‐dibutylsuccindiamide] | –
